One block for each molecule: values may come before it. Active and inactive are the calls of the source. The calls are words filed in the database; no cut-off is given here.
Key:
P2X purinoceptor 7 [1] = molecular target: T1, P2X purinoceptor 7 (Mus musculus, UniProt Q9Z1M0); test: Antagonist activity at mouse P2X7 receptor assessed as reduction in calcium flux by FLIPR calcium flux assay
T1 sequence (Q9Z1M0 whole entry): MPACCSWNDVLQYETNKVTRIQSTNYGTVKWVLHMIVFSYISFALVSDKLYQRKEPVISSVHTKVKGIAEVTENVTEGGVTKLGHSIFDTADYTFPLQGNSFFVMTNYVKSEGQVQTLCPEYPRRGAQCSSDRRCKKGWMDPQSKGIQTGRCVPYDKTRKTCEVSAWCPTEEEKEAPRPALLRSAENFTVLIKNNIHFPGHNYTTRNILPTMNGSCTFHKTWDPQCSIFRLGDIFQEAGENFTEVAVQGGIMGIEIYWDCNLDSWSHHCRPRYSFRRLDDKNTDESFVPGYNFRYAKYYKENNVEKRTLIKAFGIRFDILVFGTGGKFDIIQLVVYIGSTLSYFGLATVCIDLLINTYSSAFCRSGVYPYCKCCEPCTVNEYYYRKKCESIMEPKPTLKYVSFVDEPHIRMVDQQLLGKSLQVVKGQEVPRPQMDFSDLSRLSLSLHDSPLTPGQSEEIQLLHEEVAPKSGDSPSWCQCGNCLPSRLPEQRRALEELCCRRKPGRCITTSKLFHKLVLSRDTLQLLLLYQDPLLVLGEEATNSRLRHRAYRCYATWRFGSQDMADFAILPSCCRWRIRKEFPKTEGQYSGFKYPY

P2X purinoceptor 7 [2] = molecular target: T2, P2X purinoceptor 7 (Homo sapiens, UniProt Q99572); test: Antagonist activity at human P2X7 receptor assessed as reduction in calcium flux by FLIPR assay
T2 sequence (Q99572 whole entry): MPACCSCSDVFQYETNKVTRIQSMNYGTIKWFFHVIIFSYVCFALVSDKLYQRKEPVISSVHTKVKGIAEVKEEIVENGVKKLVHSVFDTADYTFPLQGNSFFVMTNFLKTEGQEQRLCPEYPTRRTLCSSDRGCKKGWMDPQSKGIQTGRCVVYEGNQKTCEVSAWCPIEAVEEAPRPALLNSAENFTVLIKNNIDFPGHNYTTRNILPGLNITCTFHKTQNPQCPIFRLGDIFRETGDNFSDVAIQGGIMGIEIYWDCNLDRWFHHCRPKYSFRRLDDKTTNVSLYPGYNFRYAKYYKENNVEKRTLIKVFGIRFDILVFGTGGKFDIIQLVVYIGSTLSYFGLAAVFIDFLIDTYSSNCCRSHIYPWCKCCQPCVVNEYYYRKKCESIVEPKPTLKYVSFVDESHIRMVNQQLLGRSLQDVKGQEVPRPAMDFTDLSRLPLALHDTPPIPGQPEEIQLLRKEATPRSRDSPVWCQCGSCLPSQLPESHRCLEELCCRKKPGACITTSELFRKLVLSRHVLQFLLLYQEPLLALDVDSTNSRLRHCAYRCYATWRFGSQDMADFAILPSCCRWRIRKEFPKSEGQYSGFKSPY

Mus musculus [3] = test: Antiarthritic activity in DBA mouse assessed as decrease in collagen/CFA-induced arthritic score at 30 mg/kg, ip twice per week administered on day 21 post collagen/CFA challenge; assay type: functional, organism-based
P2X purinoceptor 7 [4] = molecular target: T1, P2X purinoceptor 7; test: Antagonist activity at P2X7 receptor in C57/bl6 mouse whole blood assessed as reduction in LPS/BzATP-induced IL-1beta release preincubated with LPS-stimulated cells for 30 mins followed by BzATP addition measured after 1.5 hrs by ELISA; assay type: tissue-based
P2X purinoceptor 7 [5] = molecular target: T2, P2X purinoceptor 7; test: Antagonist activity at P2X7 receptor in human whole blood assessed as reduction in LPS/BzATP-induced IL-1beta release preincubated with LPS-stimulated cells for 30 mins followed by BzATP addition measured after 1.5 hrs by ELISA; assay type: tissue-based
Mus musculus [6] = test: Ex vivo inhibition of P2X7 receptor in C57/bl6 mouse assessed as plasma concentration required to reduce LPS/BzATP-induced IL-1beta release at 15 mg/kg, po measured 2 hrs post dose; assay type: functional, organism-based
Mus musculus [7] = test: Ex vivo inhibition of P2X7 receptor in C57/bl6 mouse assessed as plasma concentration required to reduce LPS/BzATP-induced IL-1beta release at 50 mg/kg, po measured 4 hrs post dose; assay type: functional, organism-based
Mus musculus [8] = test: Ex vivo inhibition of P2X7 receptor in C57/bl6 mouse assessed as plasma concentration required to reduce LPS/BzATP-induced IL-1beta release at 50 mg/kg, po measured 8 hrs post dose; assay type: functional, organism-based
[9] = Drug uptake in C57/bl6 mouse plasma at 50 mg/kg, po after 24 hrs; assay type: ADME, organism-based; details: in vivo, BLD = below limit of detection
Mus musculus [10] = test: Ex vivo inhibition of P2X7 receptor in po dosed C57/bl6 mouse assessed as reduction in LPS/BzATP-induced IL-1beta release in blood measured 2 hrs post dose; assay type: functional, organism-based
[11] = Plasma concentration in mouse at 50 mg/kg, po measured at 4 hrs; assay type: ADME, organism-based
Mus musculus [12] = test: Ex vivo inhibition of P2X7 receptor in C57/bl6 mouse assessed as plasma concentration required to reduce LPS/BzATP-induced IL-1beta release at 50 mg/kg, po measured 2 hrs post dose; assay type: functional, organism-based
[13] = Drug uptake in mouse brain at 50 mg/kg, po measured at 4 hrs; assay type: ADME, organism-based; details: read-out: Drug uptake
Mus musculus [14] = test: Ex vivo inhibition of P2X7 receptor in C57/bl6 mouse assessed as plasma concentration required to reduce LPS/BzATP-induced IL-1beta release at 5 mg/kg, po measured 2 hrs post dose; assay type: functional, organism-based
Mus musculus [15] = test: Antiarthritic activity in DBA mouse assessed as decrease in collagen/CFA-induced arthritic score at 0.3 mg/kg, po qd administered on day 21 to 34 post collagen/CFA challenge measured on day 35; assay type: functional, organism-based

Compound: CNc1ccc2c(C(=O)NCC(c3cnc(C(F)(F)F)nc3)N3CCC(F)(F)CC3)c(Cl)ccc2n1 (configuration not stated)
- IC50 (P2X purinoceptor 7 [1]): 305 nM
- IC50 (P2X purinoceptor 7 [2]): 82 nM

Compound: O=C(NCC(c1cnc(C(F)(F)F)nc1)N1CCC(F)(F)CC1)c1c(Cl)ccc2nc(NCCO)ccc12 (configuration not stated)
- IC50 (P2X purinoceptor 7 [2]): 78 nM

Compound: CN(Cc1cnc2nc(N)nc(N)c2n1)c1ccc(C(=O)N[C@@H](CCC(=O)O)C(=O)O)cc1
- Activity (Mus musculus [3]): Active

Compound: O=C(NCC(c1cnc(C(F)(F)F)nc1)N1CCC(F)(F)CC1)c1c(Cl)ccc2nc(NC3CC3)ccc12 (configuration not stated)
- IC50 (P2X purinoceptor 7 [1]): 123 nM
- IC50 (P2X purinoceptor 7 [4]): 631 nM
- IC50 (P2X purinoceptor 7 [5]): 141 nM
- IC50 (P2X purinoceptor 7 [2]): 64 nM

Compound: CN1CCN(c2ccc3c(C(=O)NCC(c4cnc(C(F)(F)F)nc4)N4CCC(F)(F)CC4)c(Cl)ccc3n2)CC1 (configuration not stated)
- IC50 (P2X purinoceptor 7 [1]): 486 nM
- IC50 (P2X purinoceptor 7 [2]): 85 nM

Compound: C[C@@H]1C[C@H]2[C@@H]3CCC4=CC(=O)C=C[C@]4(C)[C@@]3(F)[C@@H](O)C[C@]2(C)[C@@]1(O)C(=O)CO
- Activity (Mus musculus [15]): Active

Continued, in another order:

- IC50 (P2X purinoceptor 7 [2]): 120 nM
Compound: O=C(NCC(c1cnc(C(F)(F)F)nc1)N1CCC(F)(F)CC1)c1c(Cl)ccc2nc(N3CCC(O)CC3)ccc12 (configuration not stated)

- IC50 (P2X purinoceptor 7 [1]): 103 nM
- IC50 (P2X purinoceptor 7 [4]): 631 nM
- IC50 (P2X purinoceptor 7 [5]): 376 nM
- IC50 (P2X purinoceptor 7 [2]): 25 nM
Compound: O=C(NCC(c1cnc(C(F)(F)F)nc1)N1CCC(F)(F)CC1)c1c(Cl)ccc2nc(N3CCOCC3)ccc12 (configuration not stated)

- IC50 (P2X purinoceptor 7 [1]): 1090 nM
- IC50 (P2X purinoceptor 7 [2]): 9 nM
Compound: Nc1ccc2c(C(=O)NCC(c3cnc(C(F)(F)F)nc3)N3CCC(F)(F)CC3)c(Cl)ccc2n1 (configuration not stated)

- IC50 (P2X purinoceptor 7 [2]): 151 nM
Compound: O=C(NCC(c1cnc(C(F)(F)F)nc1)N1CCC(F)(F)CC1)c1c(Cl)ccc2nc(N3CC[C@H](O)C3)ccc12 (some centres not stated)

- IC50 (P2X purinoceptor 7 [1]): 80 nM
- IC50 (P2X purinoceptor 7 [4]): 316 nM
- Cp [9]: Bld
- inhibition (Mus musculus [10]): Dose-dependent effect
- concentration at 4 h [11]: 6420 ng/mL
- IC50 (P2X purinoceptor 7 [5]): 87 nM
- concentration at 4 h [13]: 21 ng/mL
- IC50 (P2X purinoceptor 7 [2]): 35 nM
Compound: O=C(NCC(c1cnc(C(F)(F)F)nc1)N1CCC(F)(F)CC1)c1c(Cl)ccc2nc(N3CC[C@@H](O)C3)ccc12 (some centres not stated)
- Cp (Mus musculus [6]): 8.9 µM
- Cp (Mus musculus [7]): 11.7 µM
- Cp (Mus musculus [8]): 4 µM
- Cp (Mus musculus [12]): 23.4 µM
- Cp (Mus musculus [14]): 1.6 µM

Reference: ChEMBL document CHEMBL3856256, “The discovery and preclinical characterization of 6-chloro-N-(2-(4,4-difluoropiperidin-1-yl)-2-(2-(trifluoromethyl)pyrimidin-5-yl)ethyl)quinoline-5-carboxamide based P2X7 antagonists” (Bioorg Med Chem Lett, 2016)
